Patent US20090227578A1, “Azabenzimidazole Derivatives, Their Manufacture and Use as Anti-Cancer Agents” (priority 2005, published 2009)

Columns and labels:
[1] = target: T1, Src (p60c-src, partially purified, Upstate) (Homo sapiens, UniProt P12931); assay: SRC-Inhibitor-Assay, time-resolved fluorescence kinase assay (Src); assay type: biochemical; conditions: ATP 5 μM; peptide 10 μM; enzyme pre-incubated 15 min at 15° C. with inhibitor
T1 construct: purchased UBI, Upstate Biotech, Inc
Method: (§1) SRC-Inhibitor-Assay Parameters:
(§2) Peptides: Ro: NH2-A-E-E-E-I—Y-G-E-F-E-A-K—K—K—K—CONH2, and
(§3) • Ja133-Ro: Ja133-G-Aminocaprylic acid-A-E-E-E-I—Y-G-E-F-E-A-K—K—K—K—CONH2, wherein Ja133 is LightCycler-Red 640-N-hydroxy succinimide ester; • whereby both peptides were synthesized by an optimized solid phase peptide synthesis protocol (Merrifield, Fed. Proc. Fed. Amer. Soc. Exp. Biol. 21 (1962) 412) on a Zinsser SMP350 peptide synthesizer. Shortly, the peptide was assembled on 160 mg (22.8 μmol scale) of a Rink-Linker modified polystyrene solid phase by repeatedly conjugating an twenty fold excess of amino acids each protected by temporary piperidine labile Fmoc- and permanent acid labile tert-Bu-, BOC- and O-tert-Bu-groups depending on the side chain function. The substrate sequence […] was N-terminal additionally mounted with the spacer amino acids Aminocaprylic acid and Glycin. After cleavage of the N-terminal temporary protecting group the still attached and protected peptide was labeled with a 1.5 fold amount of LightCycler-Red 640-N-hydroxy succinimide ester (purchased from Roche Diagnostics GmbH) and triethylamine. After 3 hrs. the resin was washed with Dimethylformamide and Isopropanol until the eluates of the blue resin got colourless. […] The substrate was finally isolated by a preparative reverse phase HPLC purification.
(§4) ATP, Tween 20, 4-(2-hydroxyethyl)-1-piperazineethanesulfonic acid (HEPES) were purchased from Roche Molecular Biochemicals, MgCl2 and MnCl2 were purchased from Merck Eurolab, Tris(2-carboxyethyl)phosphine hydrochloride (TCEP) was purchased from Pierce, 384 Well low volume fluorescence plates was purchased from Falcon.
(§5) At first the enzyme is pre-incubated for 15 min. at 15° C. in aqueous solution with corresponding amounts of inhibitors according to this invention. Then the phosphorylation reaction is started by adding a reaction mixture, containing ATP, Peptide and PT66, and subsequent shaking. The proceeding of this reaction is immediately monitored using time resolved fluorescence spectroscopy in a suitable well plate reader.
(§6) The IC50-values can be obtained from the reaction rates by using a non-linear curve fit (XLfit software (ID Business Solution Ltd., Guilford, Surrey, UK))

[2] = target: T2, Lck (p56lck, active, Upstate) (Homo sapiens, UniProt P06239); assay: SRC-Inhibitor-Assay, time-resolved fluorescence kinase assay (Lck); assay type: biochemical; conditions: ATP 5 μM; peptide 10 μM; enzyme pre-incubated 15 min at 15° C. with inhibitor
T2 construct: purchased UBI, Upstate Biotech, Inc
Excerpt: The activity of the compounds according to this invention as protein kinase inhibitors, in particular for the src-family tyrosine kinases, was shown by using the following assay.
as §1
Eu-labelled phosphotyrosine antibody:—for Lck Cisbio Mab PT66-K, • for Src EG&G Wallac PT66 Eu-W1024 (all commercially available).
as §2
as §3, with “purification. The purification yielded 12.2 mg RP-HPLC single peak pure blue material (lyophilisate). The identity was proven by MALDI mass spectroscopy [2720.0]. • Enzymes: Upstate Lck (p56^lck, active), Upstate Src (p60^c-src, partially purified) were purchased from UBI, Upstate Biotech, Inc. Time-resolved Fluorescence Assay: Reader: Perkin Elmer, Wallac Viktor 1420-040 multilabel counter; Liquid handling system: Beckman Coulter, Biomek 2000.” for “purification.”
as §4, §5, §6

T1 sequence (P12931 whole entry): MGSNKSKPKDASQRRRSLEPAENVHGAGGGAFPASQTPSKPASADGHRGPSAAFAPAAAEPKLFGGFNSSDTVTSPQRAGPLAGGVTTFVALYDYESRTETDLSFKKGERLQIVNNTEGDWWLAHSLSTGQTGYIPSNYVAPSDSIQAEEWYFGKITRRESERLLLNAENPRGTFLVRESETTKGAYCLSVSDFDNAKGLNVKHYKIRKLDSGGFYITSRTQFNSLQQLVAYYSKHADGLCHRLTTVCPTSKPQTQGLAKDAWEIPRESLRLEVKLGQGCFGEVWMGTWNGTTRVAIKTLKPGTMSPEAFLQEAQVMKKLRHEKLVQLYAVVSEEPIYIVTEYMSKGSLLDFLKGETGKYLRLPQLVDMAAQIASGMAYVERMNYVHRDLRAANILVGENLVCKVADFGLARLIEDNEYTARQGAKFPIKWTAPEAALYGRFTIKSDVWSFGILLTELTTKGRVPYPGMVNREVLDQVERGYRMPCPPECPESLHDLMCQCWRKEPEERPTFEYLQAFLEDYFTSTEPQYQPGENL
T2 sequence (P06239 whole entry): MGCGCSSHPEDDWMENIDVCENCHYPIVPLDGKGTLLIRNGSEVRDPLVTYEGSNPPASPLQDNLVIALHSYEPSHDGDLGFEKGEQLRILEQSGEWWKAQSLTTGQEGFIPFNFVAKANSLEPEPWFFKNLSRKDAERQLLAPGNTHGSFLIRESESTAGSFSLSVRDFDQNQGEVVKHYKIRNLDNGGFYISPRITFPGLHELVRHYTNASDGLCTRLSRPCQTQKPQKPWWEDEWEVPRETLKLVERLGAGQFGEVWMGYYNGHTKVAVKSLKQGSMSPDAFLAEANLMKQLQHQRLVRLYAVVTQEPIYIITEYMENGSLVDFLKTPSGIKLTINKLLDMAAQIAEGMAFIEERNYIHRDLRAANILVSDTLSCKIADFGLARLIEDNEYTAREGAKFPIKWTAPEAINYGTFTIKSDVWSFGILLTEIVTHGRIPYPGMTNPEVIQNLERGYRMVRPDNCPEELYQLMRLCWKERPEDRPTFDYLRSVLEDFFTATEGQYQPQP

## Cc1ccc(NC(=O)/C=C/c2ccncc2)cc1C(=O)Nc1cnc2[nH]c(-c3ccccc3)nc2c1 [Example 1-1, 2-Methyl-N-(2-phenyl-3H-imidazo[4,5-b]pyridin-6-yl)-5-((E)-3-pyridin-4-yl-acryloylamino)-benzamide]
[1]
  IC50: 100 to 1000 nM
[2]
  IC50: 10 to 100 nM

## Cc1ccc(NC(=O)/C=C/c2cccnc2)cc1C(=O)Nc1cnc2[nH]c(-c3ccccc3)nc2c1 [Example 1-2, 2-Methyl-N-(2-phenyl-3H-imidazo[4,5-b]pyridin-6-yl)-5-((E)-3-pyridin-3-yl-acryloylamino)-benzamide]
[1]
  IC50: 10 to 100 nM
[2]
  IC50: 10 to 100 nM

## Cc1ccc(NC(=O)c2ccc(N3CCOCC3)cc2)cc1C(=O)Nc1cnc2[nH]c(-c3ccccc3)nc2c1 [Example 1-3, 2-Methyl-5-(4-morpholin-4-yl-benzoylamino)-N-(2-phenyl-3H-imidazo[4,5-b]pyridin-6-yl)-benzamide]
[1]
  IC50: 43 nM
[2]
  IC50: 64 nM

## Cc1ccc(NC(=O)/C=C/c2ccccc2)cc1C(=O)Nc1cnc2[nH]c(-c3ccccc3)nc2c1 [Example 1-4, 2-Methyl-5-[(E)-(3-phenyl-acryloyl)amino]-N-(2-phenyl-3H-imidazo[4,5-b]pyridin-6-yl)-benzamide]
[1]
  IC50: 10 to 100 nM
[2]
  IC50: 10 to 100 nM

## Cc1ccc(NC(=O)c2ccccc2)cc1C(=O)Nc1cnc2[nH]c(-c3ccccc3)nc2c1 [Example 1-5, 5-Benzoylamino-2-methyl-N-(2-phenyl-3H-imidazo[4,5-b]pyridin-6-yl)-benzamide]
[1]
  IC50: 10 to 100 nM
[2]
  IC50: 10 to 100 nM

## Cc1ccc(NC(=O)c2cccc(-c3ccccc3)c2)cc1C(=O)Nc1cnc2[nH]c(-c3ccccc3)nc2c1 [Example 1-6, Biphenyl-3-carboxylic acid[4-methyl-3-(2-phenyl-3H-imidazo[4,5-b]pyridin-6-ylcarbamoyl)-phenyl]-amide]
[1]
  IC50: 10 to 100 nM
[2]
  IC50: 100 to 1000 nM

## O=C(Nc1ccc(Cl)c(C(=O)Nc2cnc3[nH]c(-c4ccccc4)nc3c2)c1)c1ccc(N2CCOCC2)cc1 [Example 2-1, 2-Chloro-5-(4-morpholin-4-yl-benzoylamino)-N-(2-phenyl-3H-imidazo[4,5-b]pyridin-6-yl)-benzamide]
[1]
  IC50: 10 to 100 nM
[2]
  IC50: 10 to 100 nM

## O=C(/C=C/c1ccccc1)Nc1ccc(Cl)c(C(=O)Nc2cnc3[nH]c(-c4ccccc4)nc3c2)c1 [Example 2-2, 2-Chloro-5-[(E)-(3-phenyl-acryloyl)amino]-N-(2-phenyl-3H-imidazo[4,5-b]pyridin-6-yl)-benzamide]
[2]
  IC50: 10 to 100 nM

## O=C(Nc1ccc(Cl)c(C(=O)Nc2cnc3[nH]c(-c4ccccc4)nc3c2)c1)c1cccc(-c2ccccc2)c1 [Example 2-4, Biphenyl-3-carboxylic acid[4-chloro-3-(2-phenyl-3H-imidazo[4,5-b]pyridin-6-ylcarbamoyl)-phenyl]-amide]
[1]
  IC50: 64 nM
[2]
  IC50: 200 nM

## O=C(Nc1ccc(Cl)c(C(=O)Nc2cnc3[nH]c(-c4ccccc4)nc3c2)c1)c1ccccc1 [Example 2-5, 5-Benzoylamino-2-chloro-N-(2-phenyl-3H-imidazo[4,5-b]pyridin-6-yl)-benzamide]
[2]
  IC50: 10 to 100 nM
